Active and inactive are the calls of the source. No cut-off for these calls is given here.
Columns and labels:
MDA-MB-231 = test: Induction of apoptosis in human multidrug resistant MDA-MB-231 cells assessed as accumulation of PARP at 0.3 uM after 48 hrs by immunoblot analysis; assay type: functional, cell-based
[1] = target: T1, c-Jun N-terminal kinase, JNK (Homo sapiens) (UniProt P45983+P53779+P45984); test: Induction of JNK phosphorylation in human multidrug resistant MCF/ADR cells transfected with PKCdelta siRNA at 0.3 uM after 48 hrs by immunocytochemical analysis; assay type: cell-based
MCF/WT [2] = test: Cytostatic effect in human drug sensitive MCF/WT cells assessed as slight increase in number of viable cells at 0.1 uM after 1 hr measured after 72 hrs in absence of drug by MTT colorimetric assay; assay type: functional, cell-based
[3] = Cell cycle arrest in human drug-sensitive MCF/WT cells assessed as accumulation at G0/G1 phase at 0.3 uM after 24 hrs by propidium fluorescence flow cytometry; assay type: functional, cell-based
[4] = target: T1, c-Jun N-terminal kinase, JNK (Homo sapiens); test: Effect on mitochondrial localization of phosphorylated JNK with Bcl-x/l in human multidrug resistant MCF/ADR cells assessed as enhanced JNK activity by Mitotracker red staining; assay type: cell-based
MCF/ADR [5] = test: Induction of apoptosis in human multidrug resistant MCF/ADR cells assessed as accumulation of PARP at 0.3 uM after 48 hrs by immunoblot analysis; assay type: functional, cell-based
[6] = Cell cycle arrest in human multidrug resistant MCF/ADR cells assessed as accumulation at sub G0/G1 phase at 0.3 uM after 24 hrs by propidium fluorescence flow cytometry; assay type: functional, cell-based
MCF/ADR [7] = test: Inhibition of induction of apoptosis in human multidrug resistant MCF/ADR cells assessed as inhibition of cleavage of PARP at 0.3 uM after 48 hrs by immunoblot analysis in presence of caspase 9-specific inhibitor; assay type: functional, cell-based
[8] = Cell cycle arrest in human multidrug resistant MCF/ADR cells assessed as accumulation at G0/G1 phase at 0.3 uM after 48 hrs by propidium fluorescence flow cytometry; assay type: functional, cell-based
MCF/ADR [9] = test: Inhibition of induction of apoptosis in human multidrug resistant MCF/ADR cells assessed as inhibition of cleavage of lamin A at 0.3 uM after 48 hrs by immunoblot analysis in presence of caspase 9-specific inhibitor; assay type: functional, cell-based
[10] = Effect on cell morphology in human multidrug resistant MCF/ADR cells assessed as floating cells with intact plasma membrane at 0.3 uM after 72 hrs by trypan blue dye exclusion test; assay type: functional
[11] = Cell cycle arrest in human drug-sensitive MCF/WT cells assessed as accumulation at G0/G1 phase at 0.3 uM after 72 hrs by propidium fluorescence flow cytometry; assay type: functional, cell-based
MCF/ADR [12] = test: Induction of apoptosis in human multidrug resistant MCF/ADR cells assessed as activation of caspase 9 at 0.3 uM by immunoblot analysis; assay type: functional, cell-based
MCF/WT [13] = test: Induction of JNK p46 isoform phosphorylation in human drug-sensitive MCF/WT cells at 0.3 uM after 48 hrs by immunoblot analysis; assay type: cell-based
MCF/ADR [14] = test: Reduction of […] cleavage in human multidrug resistant MCF/ADR cells transfected with c-Jun siRNA at 0.3 uM after 48 hrs by immunoblot analysis; assay type: functional, cell-based
[15] = target: T1, c-Jun N-terminal kinase, JNK (Homo sapiens); test: Inhibition of induction of JNK phosphorylation in human multidrug resistant MCF/ADR cells at 0.3 uM after 48 hrs by immunocytochemical analysis in presence of rottlerin; assay type: cell-based
[16] = Cell cycle arrest in human drug-sensitive MCF/WT cells assessed as accumulation at sub G0/G1 phase at 0.3 uM after 24 hrs by propidium fluorescence flow cytometry; assay type: functional, cell-based
MCF/ADR [17] = test: Reduction in induction of apoptosis in SP600125 pretreated human multidrug resistant MCF/ADR cells assessed as reduction of cleavage of lamin A at 0.3 uM after 48 hrs by immunoblot analysis; assay type: functional, cell-based
[18] = Cell cycle arrest in human multidrug resistant MCF/ADR cells assessed as accumulation at S phase at 0.3 uM after 72 hrs by propidium fluorescence flow cytometry; assay type: functional, cell-based
MCF/ADR [19] = test: Increase in Bcl-x/s levels in human multidrug resistant MCF/ADR cells at 0.3 uM by immunoblot analysis; assay type: functional, cell-based
MCF = test: Induction of c-Jun expression in human drug-sensitive MCF cells at 0.3 uM; assay type: functional, cell-based
[20] = Cell cycle arrest in human drug-sensitive MCF/WT cells assessed as accumulation at S phase at 0.3 uM after 72 hrs by propidium fluorescence flow cytometry; assay type: functional, cell-based
MCF/ADR [21] = test: Decrease in p53 accumulation in human multidrug resistant MCF/ADR cells at 0.3 uM after 72 hrs by immunoblot analysis; assay type: functional, cell-based
[22] = Cell cycle arrest in human multidrug resistant MCF/ADR cells assessed as accumulation at sub G0/G1 phase at 0.3 uM after 72 hrs by propidium fluorescence flow cytometry; assay type: functional, cell-based
[23] = target: T1, c-Jun N-terminal kinase, JNK (Homo sapiens); test: Induction of JNK activity in human multidrug resistant MCF/ADR cells assessed as mitochondrial localization of phosphorylated JNK with Bcl-x/l; assay type: cell-based
MCF/ADR [24] = test: Cytocidal effect in human multidrug resistant MCF/ADR cells assessed as decrease in number of viable cells at 0.1 uM after 1 hr measured after 72 hrs in absence of drug by MTT colorimetric assay; assay type: functional, cell-based
MCF/ADR [25] = test: Induction of apoptosis in human multidrug resistant MCF/ADR cells assessed as activation of caspase 7 at 0.3 uM by immunoblot analysis; assay type: functional, cell-based
MCF/ADR [26] = test: Increase in Bcl-2 levels in human multidrug resistant MCF/ADR cells at 0.3 uM by immunoblot analysis; assay type: functional, cell-based
MCF/ADR [27] = test: Induction of JNK p54 isoform phosphorylation in human multidrug resistant MCF/ADR cells at 0.3 uM after 48 hrs by immunoblot analysis; assay type: cell-based
[28] = Cell cycle arrest in human multidrug resistant MCF/ADR cells assessed as accumulation at S phase at 0.3 uM after 48 hrs by propidium fluorescence flow cytometry; assay type: functional, cell-based
MCF/ADR [29] = test: Reduction in induction of apoptosis in human multidrug resistant MCF/ADR cells assessed as suppression of caspase 9 activation at 0.3 uM after 48 hrs by immunoblot analysis in presence of rottlerin; assay type: functional, cell-based
[30] = Cell cycle arrest in human multidrug resistant MCF/ADR cells assessed as accumulation at G2/M phase at 0.3 uM after 48 hrs by propidium fluorescence flow cytometry; assay type: functional, cell-based
[31] = Cell cycle arrest in human multidrug resistant MCF/ADR cells assessed as accumulation at S phase at 0.3 uM after 24 hrs by propidium fluorescence flow cytometry; assay type: functional, cell-based
MCF/WT [32] = test: Induction of apoptosis in human drug-sensitive MCF/WT cells assessed as activation of caspase 7 at 0.3 uM by immunoblot analysis; assay type: functional, cell-based
[33] = Cell cycle arrest in human multidrug resistant MCF/ADR cells assessed as accumulation at G2/M phase at 0.3 uM after 24 hrs by propidium fluorescence flow cytometry; assay type: functional, cell-based
[34] = Cell cycle arrest in human drug-sensitive MCF/WT cells assessed as accumulation at sub G0/G1 phase at 0.3 uM after 48 hrs by propidium fluorescence flow cytometry; assay type: functional, cell-based
[35] = target: Transcription factor Jun (Homo sapiens) (UniProt P05412); test: Reduction in induction of phosphorylated form of c-Jun in SP600125 pretreated human multidrug resistant MCF/ADR cells at 0.3 uM after 48 hrs by immunoblot analysis; assay type: cell-based
[36] = Inhibition of PKC

Transcription factor Jun (Homo sapiens), sequence (P05412 whole entry): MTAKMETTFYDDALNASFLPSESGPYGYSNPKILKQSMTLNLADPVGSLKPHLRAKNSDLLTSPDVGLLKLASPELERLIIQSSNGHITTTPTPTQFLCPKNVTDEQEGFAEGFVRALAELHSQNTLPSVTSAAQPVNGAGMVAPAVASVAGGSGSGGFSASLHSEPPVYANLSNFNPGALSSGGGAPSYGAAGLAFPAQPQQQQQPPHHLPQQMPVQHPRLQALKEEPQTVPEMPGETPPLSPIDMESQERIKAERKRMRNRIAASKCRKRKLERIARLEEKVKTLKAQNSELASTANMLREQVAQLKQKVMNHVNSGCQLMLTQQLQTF

## NC(=O)c1cn([C@@H]2O[C@H](CO)[C@@H](O)[C@H]2O)c2ncnc(N)c12 [SANGIVAMYCIN]
MDA-MB-231
  Activity: Active
[1]
  Activity: inactive
MCF/WT [2]
  Activity: Active
[3]
  Activity: 48%
[4]
  Activity: Active
MCF/ADR [5]
  Activity: Active
[6]
  Activity: 9%
MCF/ADR [7]
  Activity: Active
[8]
  Activity: 20%
MCF/ADR [9]
  Activity: Active
[10]
  Activity: 95%
[11]
  Activity: 57%
MCF/ADR [12]
  Activity: Active
MCF/WT [13]
  Activity: inactive
MCF/ADR [14]
  Activity: inactive
[15]
  Activity: Active
[16]
  Activity: 1%
MCF/ADR [17]
  Activity: Active
[18]
  Activity: 25%
MCF/ADR [19]
  Activity: Active
MCF
  Activity: Active
[20]
  Activity: 11%
MCF/ADR [21]
  Activity: Active
[22]
  Activity: 50%
[23]
  Activity: Active
MCF/ADR [24]
  Activity: Active
MCF/ADR [25]
  Activity: Active
MCF/ADR [26]
  Activity: inactive
MCF/ADR [27]
  Activity: Active
[28]
  Activity: 23%
MCF/ADR [29]
  Activity: Active
[30]
  Activity: 17%
[31]
  Activity: 25%
MCF/WT [32]
  Activity: inactive
[33]
  Activity: 33%
[34]
  Activity: 3%
[35]
  Activity: Active
[36]
  Ki: 10 µM
